The record followed here is ChEMBL document CHEMBL4346739, “Design, synthesis, and evaluation of novel N-(4-phenoxybenzyl)aniline derivatives targeting acetylcholinesterase, β-amyloid aggregation and oxidative stress to treat Alzheimer's disease” (Bioorg Med Chem, 2019).

pIC50, pKi: −log10 of the molar value. Calls of active or inactive are those of the source. The calls are words filed in the database; no cut-off is given here.

In data set [1] the target is T1, Acetylcholinesterase (Homo sapiens, UniProt P22303). Description: Inhibition of human erythrocyte AChE using acetylthiocholine iodide as substrate preincubated for 10 mins followed by substrate addition and measured for 6 mins by Ellman's method.
T1 sequence (P22303 whole entry): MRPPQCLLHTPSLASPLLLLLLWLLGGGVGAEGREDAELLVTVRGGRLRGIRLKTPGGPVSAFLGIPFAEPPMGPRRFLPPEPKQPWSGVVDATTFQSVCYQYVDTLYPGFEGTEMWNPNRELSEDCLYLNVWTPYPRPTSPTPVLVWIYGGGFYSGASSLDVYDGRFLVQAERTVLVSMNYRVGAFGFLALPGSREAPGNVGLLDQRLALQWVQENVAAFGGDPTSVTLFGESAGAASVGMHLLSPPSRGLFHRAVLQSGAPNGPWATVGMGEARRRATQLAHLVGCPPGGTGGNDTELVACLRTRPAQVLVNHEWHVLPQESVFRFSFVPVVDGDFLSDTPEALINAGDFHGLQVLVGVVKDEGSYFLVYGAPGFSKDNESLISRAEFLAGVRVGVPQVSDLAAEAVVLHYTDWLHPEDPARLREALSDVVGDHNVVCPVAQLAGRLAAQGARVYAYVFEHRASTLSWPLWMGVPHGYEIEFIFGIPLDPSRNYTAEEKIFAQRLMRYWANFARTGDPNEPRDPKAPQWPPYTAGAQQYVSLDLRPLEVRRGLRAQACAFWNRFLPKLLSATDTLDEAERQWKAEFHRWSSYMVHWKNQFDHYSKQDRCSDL
In another data set the target is Cholinesterase (Homo sapiens, UniProt P06276). Description: Inhibition of human plasma BChE using butyrylthiocholine iodide as substrate preincubated for 10 mins followed by substrate addition and measured at 6 mins by Ellman's method.
Cholinesterase, sequence (P06276 whole entry): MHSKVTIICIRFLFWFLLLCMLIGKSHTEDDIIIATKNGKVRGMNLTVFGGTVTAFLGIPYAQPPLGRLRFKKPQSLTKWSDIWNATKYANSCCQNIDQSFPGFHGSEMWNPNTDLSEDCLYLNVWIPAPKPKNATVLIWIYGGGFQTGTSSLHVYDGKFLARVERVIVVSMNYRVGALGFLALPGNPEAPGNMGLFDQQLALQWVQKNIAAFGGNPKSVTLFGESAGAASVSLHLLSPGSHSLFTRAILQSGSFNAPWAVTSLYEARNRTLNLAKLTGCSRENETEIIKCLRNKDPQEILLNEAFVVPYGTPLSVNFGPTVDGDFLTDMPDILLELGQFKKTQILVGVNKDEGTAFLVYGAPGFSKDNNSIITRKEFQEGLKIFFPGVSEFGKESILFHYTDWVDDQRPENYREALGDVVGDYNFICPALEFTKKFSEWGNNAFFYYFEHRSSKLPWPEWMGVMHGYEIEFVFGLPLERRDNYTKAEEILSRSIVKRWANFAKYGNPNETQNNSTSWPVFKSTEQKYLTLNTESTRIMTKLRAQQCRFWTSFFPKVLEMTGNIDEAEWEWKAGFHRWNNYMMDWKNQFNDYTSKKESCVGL
The nature of data set [2]: Octanol/water partition co-efficient, log P of compound at pH 7.4 by shake-flask method. Type of data set: physicochemical.
A short description of data set [3]: Permeability of compound at 25 ug/ml at pH 7.4 incubated for 18 hrs by PAMPA-BBB assay.
In data set [4] the target is T1, Acetylcholinesterase. The experiment in a line: Competitive inhibition of human erythrocyte AChE at 10 nM to 10 uM using acetylthiocholine iodide as substrate preincubated for 10 mins followed by substrate addition and measured up to 6 mins by Lineweaver-Burk plot analysis.
Data set [5] can be described thus: Acute toxicity in Swiss albino mouse assessed as salivation by OECD 423 guideline based method. The settings on record: in vivo.
Data set [6] deals with T1, Acetylcholinesterase. Description: Competitive inhibition of human erythrocyte AChE assessed as effect on substrate V max at 10 nM to 10 uM using acetylthiocholine iodide as substrate preincubated for 10 mins followed by substrate addition and measured up to 6 mins by Lineweaver-Burk plot analysis.
The target in data set [7] is T1, Acetylcholinesterase. The experiment in a line: Competitive inhibition of human erythrocyte AChE assessed as […] in Km at 10 nM to 10 uM using acetylthiocholine iodide as substrate preincubated for 10 mins followed by substrate addition and measured up to 6 mins by Lineweaver-Burk plot analysis.
The target of data set [8] is T1, Acetylcholinesterase. Description: Competitive inhibition of human erythrocyte AChE assessed as enzyme-inhibitor complex formation by measuring 1/s at 10 nM to 10 uM using acetylthiocholine iodide as substrate preincubated for 10 mins followed by substrate addition and measured up to 6 mins by Lineweaver-Burk plot analysis.
The target of data set [9] is T1, Acetylcholinesterase. The experiment in a line: Competitive inhibition of human erythrocyte AChE assessed as enzyme-inhibitor complex formation by measuring intersection points on both axes of 1/Vmax and 1/[S] at 10 nM to 10 uM using acetylthiocholine iodide as substrate preincubated for 10 mins followed by substrate addition and measured up to 6 mins by Lineweaver-Burk plot analysis.

Data set [10] deals with Mus musculus. Description: Cognitive enhancing effect in albino mouse assessed as reversal of scopolamine-induced reduction in spontaneous alteration score at 5 mg/kg, po administered once daily for 7 days followed by scopolamine challenge for 5 mins prior to test and measured on day 7 by Y-maze test. It counts as functional, organism-based.
For data set [11], the system named is Mus musculus. Description: Cognitive enhancing effect in albino mouse assessed as reversal of scopolamine-induced reduction in spontaneous alteration score at 2.5 to 10 mg/kg, po administered once daily for 7 days followed by scopolamine challenge for 5 mins prior to test and measured on day 7 by Y-maze test. Type of data set: functional, organism-based.
Data set [12] relates to Mus musculus. Description: Reversal of scopolamine-induced amnesic effect in albino mouse assessed as increase in transfer latency time of retention trial at 2.5 to 10 mg/kg, po administered once daily for 7 days followed by scopolamine challenge and subsequent training session for 5 mins by passive avoidance test. It counts as functional, organism-based.
Data set [13] concerns Mus musculus. The experiment in a line: Antialzheimer activity in albino mouse assessed as reversal of scopolamine-induced AChE level in brain at 2.5 to 10 mg/kg, po administered once daily for 7 days followed by scopolamine challenge using acetylthiocholine iodide as substrate by Ellman's method. It counts as functional, organism-based.
Data set [14] has as its system Mus musculus. Description: In vivo antioxidant activity in albino mouse assessed as decrease in scopolamine-induced MDA level in brain at 2.5 to 10 mg/kg, po administered once daily for 7 days followed by scopolamine challenge by TBARS assay. Type of data set: functional, organism-based.
Data set [15] deals with Mus musculus. The experiment in a line: In vivo antioxidant activity in albino mouse assessed as increase in scopolamine-induced SOD level in brain at 2.5 to 10 mg/kg, po administered once daily for 7 days followed by scopolamine challenge and measured for 2 mins at 30 secs interval. It counts as functional, organism-based.
Data set [16] concerns Mus musculus. The experiment in a line: In vivo antioxidant activity in albino mouse assessed as increase in scopolamine-induced catalase activity by measuring decrease in H2O2 level in brain at 2.5 to 10 mg/kg, po administered once daily for 7 days followed by scopolamine challenge. It counts as functional, organism-based.
Data set [17] in a line: Acute toxicity in Swiss albino mouse assessed as induction of tremors by OECD 423 guideline based method. The settings on record: in vivo.
Data set [18] can be described thus: Acute toxicity in Swiss albino mouse assessed as convulsions by OECD 423 guideline based method. The settings on record: in vivo.
The nature of data set [19]: Acute toxicity in Swiss albino mouse assessed as diarrhea by OECD 423 guideline based method. The settings on record: in vivo.
A short description of data set [20]: Acute toxicity in Swiss albino mouse assessed as effect on sleep by OECD 423 guideline based method. The note with it: in vivo.
Data set [21] is described as follows: Acute toxicity in Swiss albino mouse assessed as effect on feeding behavior by OECD 423 guideline based method. The note with it: in vivo.
Data set [22] can be described thus: Acute toxicity in Swiss albino mouse assessed as mortality by OECD 423 guideline based method. The settings on record: in vivo.
The target in data set [23] is T1, Acetylcholinesterase. The experiment in a line: Inhibition of human erythrocyte AChE-induced amyloid beta (1 to 42) (unknown origin) aggregation incubated for 48 hrs by fluorescence based thioflavin T assay.
The test system of data set [24] is Mus musculus. The experiment in a line: Reversal of scopolamine-induced amnesic effect in albino mouse assessed as increase in transfer latency time of acquisition trial at 2.5 to 10 mg/kg, po administered once daily for 7 days followed by scopolamine challenge and subsequent training session for 5 mins by passive avoidance test. It counts as functional, organism-based.

Data set [25] relates to Mus musculus. Description: Effect on total arm entries in scopolamine-induced spatial memory impairment in albino mouse model of amnesia at 2.5 to 10 mg/kg, po administered once daily for 7 days followed by scopolamine challenge for 5 mins prior to test and measured on day 7 by Y-maze test. It counts as ADME, organism-based. The note with it: in vivo.
Data set [26] relates to Mus musculus. The experiment in a line: Reversal of scopolamine-induced amnesic effect in albino mouse assessed as increase in transfer latency time of retention trial at 5 mg/kg, po administered once daily for 7 days followed by scopolamine challenge and subsequent training session for 5 mins by passive avoidance test. It counts as functional, organism-based.
In data set [27] the test system is Mus musculus. Description: Reversal of scopolamine-induced amnesic effect in albino mouse assessed as increase in transfer latency time of acquisition trial at 5 mg/kg, po administered once daily for 7 days followed by scopolamine challenge and subsequent training session for 5 mins by passive avoidance test. It counts as functional, organism-based.

Regarding `Nc1cccc(Cl)c1Oc1ccc(CNc2ccc(Br)cc2)cc1`, the pIC50 at Acetylcholinesterase [1] and against Cholinesterase was below 5.00 in each case. Moreover, the logD in [2] was found to be 4.52. In data set [3], this compound yielded a Papp at 18 h, 25 ug/ml of 3.48 ×10⁻⁶ cm/s.
As for `CCn1cc(C(=O)O)c(=O)c2cc(F)c(N3CCNC(C)C3)c(F)c21` (configuration not stated) [LOMEFLOXACIN], the Papp at 18 h, 25 ug/ml in [3] was in the range of 0.31 to 1.1 ×10⁻⁶ cm/s.
In turn, `Cc1nnc2n1-c1ccc(Cl)cc1C(c1ccccc1)=NC2` [ALPRAZOLAM] had an apparent permeability coefficient (Papp) at 18 h, 25 ug/ml in [3] of 4.2 to 5.4 ×10⁻⁶ cm/s.
Turning to `Nc1cccc(Cl)c1Oc1ccc(CNc2cccc(O)c2)cc1`, the negative-log IC50 (pIC50) against Acetylcholinesterase [1] is 5.14; at Cholinesterase, 5.02. Also, in [2], the pH-dependent lipophilicity (logD) worked out at 3.01. Moreover, the Papp at 18 h, 25 ug/ml in [3] was determined as 5.55 ×10⁻⁶ cm/s.
`COc1cc(NCc2ccc(Oc3c(N)cccc3Cl)cc2)cc(OC)c1OC` had a negative-log Ki (pKi) at Acetylcholinesterase [4] of 6.06. Besides, the Activity entry was “Non-Toxic” in [5]; “Dose-dependent effect” in the data set with Mus musculus [12]; “Dose-dependent effect” in the data set with Mus musculus [13]; “Non-Toxic” in data set [17]; “Non-Toxic” in data set [18]; “Non-Toxic” in [19]. Besides, the Activity entry (in [20]; in data set [21]; in [22]; in the data set on Mus musculus [25]) was “Non-Toxic” each time. Moreover, the inhibition result on Acetylcholinesterase [6] and on Acetylcholinesterase [7] was “Active” throughout. Further, the negative-log IC50 (pIC50) at Acetylcholinesterase [1] is 5.88; against Cholinesterase, 5.08. Also, the logD in data set [2] is 3.78. In data set [3], the Papp at 18 h, 25 ug/ml came out at 6.35 ×10⁻⁶ cm/s. Further, the fold change (FC) on Acetylcholinesterase [8] is above 0. Besides, the Ratio on Acetylcholinesterase [9] is above 0. Besides, the outcome in the data set with Mus musculus [10], in the data set with Mus musculus [11], in the data set with Mus musculus [14], with Mus musculus [15], with Mus musculus [16] and with Mus musculus [24] was Active. For the same compound, on Acetylcholinesterase [23], the inhibition result was “Dose-dependent effect”.
Turning to `NCCc1ccc(O)c(O)c1` [DOPAMINE], the Papp at 18 h, 25 ug/ml in data set [3] is 0.18 to 0.2 ×10⁻⁶ cm/s.
Regarding `Nc1cccc(Cl)c1Oc1ccc(CNc2ccc(Cl)cc2)cc1`, the negative-log IC50 (pIC50) against Acetylcholinesterase [1] and at Cholinesterase was below 5.00 throughout. In [2], this compound gave a pH-dependent lipophilicity (logD) of 4.65. Besides, in data set [3], the Papp at 18 h, 25 ug/ml was 3.42 ×10⁻⁶ cm/s.
Consider `Nc1cccc(Cl)c1Oc1ccc(CNc2cc(Br)cc(Br)c2)cc1`, for which the pIC50 at Acetylcholinesterase [1] and against Cholinesterase was below 5.00 in each case. Also, the logD in data set [2] stood at 4.52. Also, the Papp at 18 h, 25 ug/ml in data set [3] turned out to be 1.45 ×10⁻⁶ cm/s.
On to `Nc1cccc(Cl)c1Oc1ccc(CNc2cccc(Br)c2)cc1`, for which the pIC50 at Acetylcholinesterase [1] and against Cholinesterase was below 5.00 throughout. In data set [2], this compound registered a pH-dependent lipophilicity (logD) of 4.05. Besides, the Papp at 18 h, 25 ug/ml in [3] was 3.56 ×10⁻⁶ cm/s.
`Nc1cccc(Cl)c1Oc1ccc(CNc2cccc(Cl)c2)cc1`: the pIC50 against Acetylcholinesterase [1] and on Cholinesterase was below 5.00 each time. For the same compound, the pH-dependent lipophilicity (logD) in data set [2] was 3.98. The same compound displayed a Papp at 18 h, 25 ug/ml in [3] of 5.65 ×10⁻⁶ cm/s.
The compound `CC(=O)[C@H]1CC[C@H]2[C@@H]3CCC4=CC(=O)CC[C@]4(C)[C@H]3CC[C@]12C` [PROGESTERONE] registered a Papp at 18 h, 25 ug/ml in [3] of 9.3 to 13.8 ×10⁻⁶ cm/s.
`COc1cccc(NCc2ccc(Oc3c(N)cccc3Cl)cc2)c1`: the values for the negative logarithm of the IC50 (pIC50) against Acetylcholinesterase [1] and on Cholinesterase were 5.25 and 5.08, respectively. This compound returned a log distribution coefficient (logD) in data set [2] of 3.98. In data set [3], this compound displayed a Papp at 18 h, 25 ug/ml of 4.65 ×10⁻⁶ cm/s.
Taken in the same sequence, the figures for `COc1ccc(NCc2ccc(Oc3c(N)cccc3Cl)cc2)cc1` were 5.28, 5.00, 3.33 and 5.68 ×10⁻⁶ cm/s.
Consider `COc1cc2c(cc1OC)C(=O)C(CC1CCN(Cc3ccccc3)CC1)C2` (configuration not stated), for which the result in the data set on Mus musculus [10], in the data set on Mus musculus [26] and in the data set on Mus musculus [27] was Active.
For the compound `Nc1cccc(Cl)c1Oc1ccc(CNc2cc(Cl)cc(Cl)c2)cc1`, the pIC50 at Acetylcholinesterase [1] and against Cholinesterase was below 5.00 throughout. In data set [2], this compound yielded a logD of 4.39. In data set [3], this compound yielded a Papp at 18 h, 25 ug/ml of 1.56 ×10⁻⁶ cm/s.
`CN(C)CCCN1c2ccccc2Sc2ccc(Cl)cc21` [CHLORPROMAZINE] yielded a Papp at 18 h, 25 ug/ml in [3] of 5.8 to 6.5 ×10⁻⁶ cm/s.
`Nc1cccc(Cl)c1Oc1ccc(CNc2ccccc2)cc1`: the negative logarithm of the IC50 (pIC50) against Acetylcholinesterase [1] and on Cholinesterase was below 5.00 in each case. Besides, the logD in [2] was determined as 3.54. The apparent permeability (Papp) at 18 h, 25 ug/ml in data set [3] turned out to be 6.26 ×10⁻⁶ cm/s.
With `COc1cc(NCc2ccc(Oc3c(N)cccc3Cl)cc2)cc(OC)c1`, the negative logarithm of the IC50 (pIC50) against Acetylcholinesterase [1] is 5.54; on Cholinesterase, 5.19. This compound had a pH-dependent lipophilicity (logD) in [2] of 3.56. The compound further displayed a Papp at 18 h, 25 ug/ml in data set [3] of 4.54 ×10⁻⁶ cm/s.
Consider `Nc1cccc(Cl)c1Oc1ccc(CNc2ccc(O)cc2)cc1`, for which the values for the pIC50 at Acetylcholinesterase [1] and against Cholinesterase were 5.06 and 5.03, respectively. The same compound displayed a logD in [2] of 3.15. Moreover, the apparent permeability coefficient (Papp) at 18 h, 25 ug/ml in data set [3] is 6.87 ×10⁻⁶ cm/s.
